The target of experiment [1] is cAMP-dependent protein kinase catalytic subunit alpha (Homo sapiens, UniProt P17612). The experiment in a line: Selectivity interaction (ProQinase) EUB0000171b PRKACA.
Experiment [2] concerns the target Dual specificity tyrosine-phosphorylation-regulated kinase 1B (Homo sapiens, UniProt Q9Y463). The following applies: at 10 µM.
For experiment [3], the target named is T1, Serine/threonine-protein kinase 17B (Homo sapiens) (UniProt O94768).
T1 sequence (whole entry): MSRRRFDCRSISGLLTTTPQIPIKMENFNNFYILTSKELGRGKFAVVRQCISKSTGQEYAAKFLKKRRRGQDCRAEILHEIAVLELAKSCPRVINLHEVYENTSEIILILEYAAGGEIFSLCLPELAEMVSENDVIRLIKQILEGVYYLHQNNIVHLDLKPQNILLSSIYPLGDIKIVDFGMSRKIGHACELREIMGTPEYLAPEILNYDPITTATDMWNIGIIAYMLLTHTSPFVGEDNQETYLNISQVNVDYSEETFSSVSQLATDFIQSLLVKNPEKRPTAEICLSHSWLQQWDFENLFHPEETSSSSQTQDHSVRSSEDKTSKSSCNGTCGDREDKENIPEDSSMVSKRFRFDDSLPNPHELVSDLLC
Put plainly: Selectivity interaction (KinomeScan (DiscoverX)) EUB0000092b STK17B. The following applies: at 10 µM.

Experiment [4] deals with Serine/threonine-protein kinase Nek4 (Homo sapiens) (UniProt P51957). Put plainly: Selectivity interaction (KinomeScan (DiscoverX)) EUB0000092b NEK4. The following applies: at 10 µM.
The target in experiment [5] is T2, Mitogen-activated protein kinase kinase kinase kinase 2 (Homo sapiens) (UniProt Q12851).
T2 sequence (whole entry): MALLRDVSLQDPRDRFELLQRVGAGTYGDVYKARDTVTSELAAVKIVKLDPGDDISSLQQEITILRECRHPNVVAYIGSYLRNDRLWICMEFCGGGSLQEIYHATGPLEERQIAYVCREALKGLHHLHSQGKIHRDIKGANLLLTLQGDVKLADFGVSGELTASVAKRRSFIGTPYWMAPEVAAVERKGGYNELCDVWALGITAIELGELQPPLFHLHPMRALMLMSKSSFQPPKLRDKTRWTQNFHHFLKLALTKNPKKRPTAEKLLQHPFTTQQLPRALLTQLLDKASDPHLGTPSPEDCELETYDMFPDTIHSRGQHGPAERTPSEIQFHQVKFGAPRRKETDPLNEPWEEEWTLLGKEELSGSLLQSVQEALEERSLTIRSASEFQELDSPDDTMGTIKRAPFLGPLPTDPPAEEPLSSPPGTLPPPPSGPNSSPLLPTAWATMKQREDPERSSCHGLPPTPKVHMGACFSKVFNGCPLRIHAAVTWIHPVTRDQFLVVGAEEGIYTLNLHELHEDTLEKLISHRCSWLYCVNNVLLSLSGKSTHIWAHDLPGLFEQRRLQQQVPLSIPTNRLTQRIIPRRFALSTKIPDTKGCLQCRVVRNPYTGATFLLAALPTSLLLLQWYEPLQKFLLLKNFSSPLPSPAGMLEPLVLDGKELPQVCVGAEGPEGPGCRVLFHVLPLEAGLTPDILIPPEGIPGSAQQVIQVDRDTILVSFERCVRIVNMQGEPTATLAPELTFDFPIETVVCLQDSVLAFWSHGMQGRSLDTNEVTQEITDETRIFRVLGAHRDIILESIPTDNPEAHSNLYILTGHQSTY
The experiment in a line: Selectivity interaction (KinomeScan (DiscoverX)) EUB0000092b MAP4K2. The following applies: at 10 µM.

Experiment [6] has as its target Histone-lysine N-methyltransferase SUV39H2 (Homo sapiens) (UniProt Q9H5I1). The experiment in a line: Selectivity interaction (Methyltransferase screen (radiometric assays, panel of 8 PRMTs, 21 protein lysine methyltransferases, 3 DNA methyltransferases, and one RNA methyltransferase)) EUB0000272b SUV39H2.
In experiment [7] the target is Calcium/calmodulin-dependent protein kinase type II subunit delta (Homo sapiens) (UniProt Q13557). The experiment in a line: Selectivity interaction (SelectScreen profiling (Invitrogen)) EUB0000607a CAMK2D. The following applies: at 2 µM.
The next experiment concerns the target SRSF protein kinase 1 (Homo sapiens, UniProt Q96SB4). Put plainly: Selectivity interaction (ActivX KiNativ screen (kinase selectivity in THP-1 cell lysates)) EUB0000639a SRPK1. It is filed as subcellular. The following applies: lysate, at 0.2 µM.
Experiment [8] has as its target MAP/microtubule affinity-regulating kinase 3 (Homo sapiens) (UniProt P27448). Put plainly: Selectivity interaction (ActivX KiNativ screen (kinase selectivity in THP-1 cell lysates)) EUB0000639a MARK3. The experiment is classed as subcellular. The following applies: lysate.
Experiment [9] deals with Cyclin-dependent kinase 9 (Homo sapiens, UniProt P50750). Put plainly: Selectivity interaction (KinomeScan (DiscoverX)) EUB0001619a CDK9. The following applies: at 1 µM.
The target in experiment [10] is T3, Myotonin-protein kinase (Homo sapiens) (UniProt Q09013).
T3 sequence (whole entry): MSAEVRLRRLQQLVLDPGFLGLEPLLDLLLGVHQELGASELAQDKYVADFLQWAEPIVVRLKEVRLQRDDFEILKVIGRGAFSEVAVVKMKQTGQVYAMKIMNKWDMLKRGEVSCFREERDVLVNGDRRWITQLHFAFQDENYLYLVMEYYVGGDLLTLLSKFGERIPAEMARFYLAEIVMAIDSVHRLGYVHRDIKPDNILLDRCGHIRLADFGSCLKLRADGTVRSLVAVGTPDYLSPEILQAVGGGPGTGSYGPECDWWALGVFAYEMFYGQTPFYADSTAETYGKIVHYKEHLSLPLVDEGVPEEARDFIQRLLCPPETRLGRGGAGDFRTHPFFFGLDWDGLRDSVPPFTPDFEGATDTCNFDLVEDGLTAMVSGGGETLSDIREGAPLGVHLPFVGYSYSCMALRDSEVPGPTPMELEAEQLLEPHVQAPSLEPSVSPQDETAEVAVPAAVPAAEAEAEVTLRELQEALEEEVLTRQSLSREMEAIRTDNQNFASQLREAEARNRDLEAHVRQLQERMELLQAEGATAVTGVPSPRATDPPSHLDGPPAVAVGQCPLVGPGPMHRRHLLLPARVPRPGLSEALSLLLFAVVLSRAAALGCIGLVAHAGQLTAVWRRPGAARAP
Put plainly: Selectivity interaction (KinomeScan (DiscoverX)) EUB0000618a DMPK. The following applies: at 10 µM.

MAP/microtubule affinity-regulating kinase 3 (Homo sapiens), sequence (P27448 whole entry, looked up): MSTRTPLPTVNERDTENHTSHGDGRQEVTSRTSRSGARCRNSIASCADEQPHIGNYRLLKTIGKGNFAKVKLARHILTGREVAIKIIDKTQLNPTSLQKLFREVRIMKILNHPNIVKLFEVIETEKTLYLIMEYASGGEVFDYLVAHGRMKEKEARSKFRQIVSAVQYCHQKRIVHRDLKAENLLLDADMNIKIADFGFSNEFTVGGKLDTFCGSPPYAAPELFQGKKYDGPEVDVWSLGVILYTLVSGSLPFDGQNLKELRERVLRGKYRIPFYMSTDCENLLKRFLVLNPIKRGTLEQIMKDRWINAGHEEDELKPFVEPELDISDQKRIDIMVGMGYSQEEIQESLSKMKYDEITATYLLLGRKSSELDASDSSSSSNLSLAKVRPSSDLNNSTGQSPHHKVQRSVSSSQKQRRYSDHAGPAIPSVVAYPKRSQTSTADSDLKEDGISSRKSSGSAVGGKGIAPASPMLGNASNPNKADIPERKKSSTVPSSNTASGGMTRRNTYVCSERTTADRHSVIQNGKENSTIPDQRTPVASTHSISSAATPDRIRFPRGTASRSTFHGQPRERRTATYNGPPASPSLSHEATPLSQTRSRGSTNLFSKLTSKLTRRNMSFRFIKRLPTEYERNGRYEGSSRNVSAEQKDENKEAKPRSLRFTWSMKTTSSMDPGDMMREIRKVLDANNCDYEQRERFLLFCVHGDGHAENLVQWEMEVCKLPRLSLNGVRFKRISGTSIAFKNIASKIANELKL
Histone-lysine N-methyltransferase SUV39H2 (Homo sapiens), sequence (Q9H5I1 whole entry): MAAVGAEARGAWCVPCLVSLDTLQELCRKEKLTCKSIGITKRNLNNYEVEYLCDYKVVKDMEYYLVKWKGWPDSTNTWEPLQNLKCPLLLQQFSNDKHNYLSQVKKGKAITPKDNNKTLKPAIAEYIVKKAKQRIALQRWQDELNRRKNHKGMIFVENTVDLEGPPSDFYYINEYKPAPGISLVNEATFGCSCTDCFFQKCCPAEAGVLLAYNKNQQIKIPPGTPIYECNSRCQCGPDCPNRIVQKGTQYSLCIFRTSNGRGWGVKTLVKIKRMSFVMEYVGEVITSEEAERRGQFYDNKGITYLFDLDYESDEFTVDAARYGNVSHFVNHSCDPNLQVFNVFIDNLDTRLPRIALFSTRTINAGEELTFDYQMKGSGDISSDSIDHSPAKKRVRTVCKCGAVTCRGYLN
SRSF protein kinase 1, sequence (Q96SB4 whole entry): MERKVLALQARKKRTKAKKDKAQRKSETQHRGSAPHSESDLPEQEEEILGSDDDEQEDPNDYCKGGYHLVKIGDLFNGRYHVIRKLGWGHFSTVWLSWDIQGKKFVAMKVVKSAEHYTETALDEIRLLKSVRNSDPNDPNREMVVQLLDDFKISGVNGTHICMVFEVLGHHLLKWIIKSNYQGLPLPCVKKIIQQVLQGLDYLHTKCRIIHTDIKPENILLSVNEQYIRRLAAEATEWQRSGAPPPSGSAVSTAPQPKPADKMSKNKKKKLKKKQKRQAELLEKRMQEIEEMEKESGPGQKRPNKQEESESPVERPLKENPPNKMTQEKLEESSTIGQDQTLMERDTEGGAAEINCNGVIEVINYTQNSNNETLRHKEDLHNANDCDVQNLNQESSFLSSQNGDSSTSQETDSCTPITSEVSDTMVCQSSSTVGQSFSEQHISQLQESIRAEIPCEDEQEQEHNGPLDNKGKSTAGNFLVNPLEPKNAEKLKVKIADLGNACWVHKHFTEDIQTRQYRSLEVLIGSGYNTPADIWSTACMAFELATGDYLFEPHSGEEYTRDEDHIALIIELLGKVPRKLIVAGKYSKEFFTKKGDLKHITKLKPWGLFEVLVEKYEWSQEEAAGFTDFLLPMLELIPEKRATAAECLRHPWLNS
Serine/threonine-protein kinase Nek4 (Homo sapiens), sequence (P51957 whole entry, looked up): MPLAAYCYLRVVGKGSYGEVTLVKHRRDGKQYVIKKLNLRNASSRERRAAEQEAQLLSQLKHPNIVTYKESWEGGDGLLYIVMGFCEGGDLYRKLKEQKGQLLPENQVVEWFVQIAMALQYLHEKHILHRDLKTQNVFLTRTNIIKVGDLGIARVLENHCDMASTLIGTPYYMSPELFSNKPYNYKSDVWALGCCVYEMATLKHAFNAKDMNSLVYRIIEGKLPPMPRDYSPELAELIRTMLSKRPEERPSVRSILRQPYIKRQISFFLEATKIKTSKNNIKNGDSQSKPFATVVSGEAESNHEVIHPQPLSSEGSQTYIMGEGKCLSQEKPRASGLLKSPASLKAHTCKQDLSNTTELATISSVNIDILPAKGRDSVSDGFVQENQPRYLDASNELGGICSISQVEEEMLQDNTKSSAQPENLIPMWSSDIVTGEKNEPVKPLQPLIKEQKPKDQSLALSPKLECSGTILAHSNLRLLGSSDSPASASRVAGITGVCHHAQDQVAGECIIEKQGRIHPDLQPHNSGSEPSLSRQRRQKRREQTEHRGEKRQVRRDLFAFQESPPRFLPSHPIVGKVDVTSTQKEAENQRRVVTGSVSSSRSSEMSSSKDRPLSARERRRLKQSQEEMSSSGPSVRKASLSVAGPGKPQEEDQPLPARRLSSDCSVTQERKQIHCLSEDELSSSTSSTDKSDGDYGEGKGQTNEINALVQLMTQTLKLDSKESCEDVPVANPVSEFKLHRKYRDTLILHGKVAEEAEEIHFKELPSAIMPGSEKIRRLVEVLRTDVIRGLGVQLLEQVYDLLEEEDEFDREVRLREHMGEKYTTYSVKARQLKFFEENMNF
Cyclin-dependent kinase 9, sequence (P50750 whole entry): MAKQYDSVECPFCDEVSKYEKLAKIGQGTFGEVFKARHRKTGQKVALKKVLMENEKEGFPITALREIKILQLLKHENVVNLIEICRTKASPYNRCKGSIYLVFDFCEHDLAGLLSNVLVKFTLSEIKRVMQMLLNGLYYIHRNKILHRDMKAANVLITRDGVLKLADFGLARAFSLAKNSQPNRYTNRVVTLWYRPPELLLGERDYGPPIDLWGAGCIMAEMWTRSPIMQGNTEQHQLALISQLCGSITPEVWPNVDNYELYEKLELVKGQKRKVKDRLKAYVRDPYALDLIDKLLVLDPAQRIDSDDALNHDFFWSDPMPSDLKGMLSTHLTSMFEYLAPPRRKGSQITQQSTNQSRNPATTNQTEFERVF
Calcium/calmodulin-dependent protein kinase type II subunit delta (Homo sapiens), sequence (Q13557 whole entry): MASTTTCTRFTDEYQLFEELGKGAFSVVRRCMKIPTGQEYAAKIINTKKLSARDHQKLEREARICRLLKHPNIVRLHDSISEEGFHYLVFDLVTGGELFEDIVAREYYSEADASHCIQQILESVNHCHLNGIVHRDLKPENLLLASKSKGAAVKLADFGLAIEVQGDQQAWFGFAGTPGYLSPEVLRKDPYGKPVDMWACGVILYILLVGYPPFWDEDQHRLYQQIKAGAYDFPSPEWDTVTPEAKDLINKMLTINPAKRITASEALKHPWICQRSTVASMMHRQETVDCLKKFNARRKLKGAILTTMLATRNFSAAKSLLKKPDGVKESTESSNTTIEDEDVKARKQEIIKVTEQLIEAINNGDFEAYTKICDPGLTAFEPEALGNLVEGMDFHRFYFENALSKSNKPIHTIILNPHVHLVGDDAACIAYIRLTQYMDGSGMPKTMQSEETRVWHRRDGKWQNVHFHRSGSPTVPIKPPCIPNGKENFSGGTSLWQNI
Dual specificity tyrosine-phosphorylation-regulated kinase 1B, sequence (Q9Y463 whole entry, looked up): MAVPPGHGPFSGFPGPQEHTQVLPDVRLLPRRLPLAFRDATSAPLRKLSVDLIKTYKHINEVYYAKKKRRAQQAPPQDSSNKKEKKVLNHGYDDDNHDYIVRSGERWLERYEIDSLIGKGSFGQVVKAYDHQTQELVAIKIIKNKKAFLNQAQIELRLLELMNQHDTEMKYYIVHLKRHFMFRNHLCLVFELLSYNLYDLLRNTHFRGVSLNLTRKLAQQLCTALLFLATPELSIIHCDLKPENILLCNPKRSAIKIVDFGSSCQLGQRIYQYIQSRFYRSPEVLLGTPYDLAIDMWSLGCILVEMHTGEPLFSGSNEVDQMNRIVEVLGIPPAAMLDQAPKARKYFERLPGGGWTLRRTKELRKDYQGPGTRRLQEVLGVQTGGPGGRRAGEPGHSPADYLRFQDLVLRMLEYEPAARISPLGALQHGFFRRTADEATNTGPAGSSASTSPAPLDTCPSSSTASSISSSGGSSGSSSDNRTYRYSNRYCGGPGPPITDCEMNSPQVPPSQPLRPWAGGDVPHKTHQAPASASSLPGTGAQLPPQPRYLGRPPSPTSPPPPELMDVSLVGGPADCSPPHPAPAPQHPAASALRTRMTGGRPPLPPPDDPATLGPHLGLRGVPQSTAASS

`C=CC(=O)Nc1cccc(C(=O)Nc2ccc(Nc3cc(-c4[nH]c(SC)nc4C)ccn3)cc2)c1`: the % of control in experiment [1] (at 1 µM) turned out to be 84%; in [1] (at 5 µM), 66%.

Turning to `CCN(CC)CCCCNc1ncc2cc(-c3cc(OC)cc(OC)c3)c(NC(=O)NC(C)(C)C)nc2n1`, the % of control in experiment [2] is 100%.

Turning to `CCC(=O)N1CCN(c2ccc(-n3c(=O)ccc4cnc5ccc(-c6cnc7ccccc7c6)cc5c43)cc2C(F)(F)F)CC1`, the % of control in [3] is 67%; in experiment [4] it was 86%; in [5], 35%.

Take `Cc1cc(C)cc([C@H]2c3cc(C)ccc3NC(=O)CN2C(=O)c2ccc(Br)s2)c1`: the results for the % of activity in [6] (at 1 µM) and in [6] (at 10 µM) were 99.7% and 98%, respectively.

As for `CNC(=O)Nc1ccc(-c2nc(N3CC4CCC(C3)O4)c3cnn(C4CCC5(CC4)OCCO5)c3n2)cc1`, in experiment [7], the % of inhibition was found to be 11%.

In the case of `CC[C@@H]1[C@H](F)C(=O)N[C@@H]1COc1nccc2cc(C(N)=O)c(OC)cc12` [ZIMLOVISERTIB], the % of inhibition at SRSF protein kinase 1 came out at 0.5%; in experiment [8] (at 0.01 µM), 10%; in experiment [8] (at 0.04 µM), 17.3%; in [8] (at 0.2 µM), 11.9%; in [8] (at 1 µM), 26.3%; in [8] (at 5 µM), 51.4%.

`N#Cc1cccc(-c2c[nH]c3ncnc(N4CCOCC4)c23)c1` yielded a % of control in experiment [9] of 97%.

With `O[C@H]1CC[C@H](Nc2ncc3nc(Nc4c(F)cc(F)cc4F)n([C@H]4CCOC4)c3n2)CC1`, the % of control in experiment [10] was found to be 100%.

The values are drawn from ChEMBL document CHEMBL5465560, “Selectivity Literature for EUbOPEN Chemogenomic Library” (2024).
